Assay results taken from ChEMBL document CHEMBL5360552, “Potential RNA-dependent RNA polymerase (RdRp) inhibitors as prospective drug candidates for SARS-CoV-2” (Eur J Med Chem, 2023).

How the values were obtained:
SARS-CoV-2 [1] = assay: Antiviral activity against SARS-CoV-2 omicron variant infected in human Calu-3 cells of organoid assessed as intracellular viral RNA level measured after 48 hrs by qRT-PCR analysis; format: functional, organism-based; details: Severe acute respiratory syndrome coronavirus 2, Calu-3, 48 h
SARS-CoV-2 [2] = assay: Antiviral activity against SARS-CoV-2 infected in african green monkey Vero E6 cells pretreated for 1 hrs followed by viral infection for 2 hrs and replaced with fresh medium for 48 hrs post infection by qRT-PCR; format: functional, organism-based; details: Severe acute respiratory syndrome coronavirus 2, Vero C1008

| Compound | IC50 (SARS-CoV-2 [1]) [nM] | EC50 (SARS-CoV-2 [2]) [nM] |
| --- | --- | --- |
| CC(C)C(=O)OC[C@H]1O[C@@H](n2cc/c(=N\O)[nH]c2=O)[C@H](O)[C@@H]1O [MOLNUPIRAVIR] | 756 | – |
| CCC(CC)COC(=O)[C@H](C)N[P@](=O)(OC[C@H]1O[C@@](C#N)(c2ccc3c(N)ncnn23)[C@H](O)[C@@H]1O)Oc1ccccc1 | – | 770 |
